Test: gradient 5% acetonitrile 3 min, to 50% in 2 min, to 85% in 15 min, held 3 min, 100 µL/min
Settings: column: Zorbax Extend-C18 2.1 x 50 mm; eluents: water / acetonitrile, 0.1% formic acid
How it was run: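 Pure standards were run in mixtures of ~100 molecules by HPLC coupled to a quadrupole time-of-flight mass spectrometer. The column was a Zorbax Extend-C18 (2.1 × 50 mm, 1.8 μm) at 100 μL/min, with water and acetonitrile each containing 0.1% formic acid, in positive and negative ionization mode. Dead and dwell volumes were 40 μL and 900 μL. Retention time was taken from computationally picked adduct peaks, each manually inspected, with data collected over 3 months.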

| SMILES | RP-LC retention time |
| --- | --- |
| CCC(C)NC(=O)C1CCN(c2cnn(Cc3ccccc3)c(=O)c2)CC1 (stereo not given) | 721 s |
| CN(C)C(=O)C1c2ccccc2CC(=O)N1Cc1ccccc1 (stereo not given) | 728 s |
| CCOc1cc(CN2CCCC2c2cc(C)no2)ccc1OCC(N)=O (stereo not given) | 580 s |
| Cc1ccc(F)c(NC(=O)C(C)C2CCN(C(=O)Nc3ccc(Cl)cc3)CC2)c1 (stereo not given) | 968 s |
| CCc1cc(-c2csc(S(=O)(=O)N3CCN(C4CCCCC4)CC3)c2)on1 | 723 s |
| COc1ccc(NC(=O)C2CCCN2S(=O)(=O)c2ccc3c(c2)CCCC(=O)N3)cc1Cl (stereo not given) | 787 s |
| CCOC(=O)c1cncn1C(C)c1ccccc1 (stereo not given) | 774 s |
| CCCNC(=O)C1CCCN(c2ccc(SCC(=O)Nc3cccc(C(F)(F)F)c3)nn2)C1 (stereo not given) | 744 s |
| CN(C)c1nc2cc(C(=O)N3CCC4(CC3)OCCO4)sc2n1-c1ccc(F)cc1 | 654 s |
| COc1ncccc1CNC(=O)NCc1ccc(F)cc1 | 668 s |
| CN(C)c1ccc(CNC(=O)c2nnc(-c3ccc(S(=O)(=O)N(C)C)cc3)o2)cc1 | 658 s |
| O=C(Nc1ccc2c(c1)OCCO2)N1C[C@@H]2CN(S(=O)(=O)c3ccccc3)C[C@H](C1)O2 | 728 s |
| CCN1C(=O)C(CC(=O)NCC2CCCCC2)Sc2ncccc21 (stereo not given) | 808 s |
| COc1cc(NC(=O)c2ccccn2)ccc1Cl | 994 s |
| Cc1ccc(C(=O)NC2CCCCCCC2)cc1NC(=O)C1=CSCCO1 | 949 s |
| CN1C(=O)C(CC(=O)Nc2ccccc2)=C2CCCCC21 (stereo not given) | 758 s |
| COC(=O)c1ccc(NC(=O)N2CCCC2c2c(C)noc2C)cc1 (stereo not given) | 751 s |
| Cc1nnc2ccc(-c3noc(Cc4cccc(F)c4)n3)cn12 | 787 s |
| Cc1cc(Br)ccc1NC(=O)C1CCCN(c2nccnc2Oc2ccccc2)C1 (stereo not given) | 1120 s |
| Cc1ccc(NC(=O)N2CC(c3nc(C(C)C)nn3C)C2)cc1C | 710 s |
| Cn1cc(-c2nc(C(=O)NCc3cccc(C(F)(F)F)c3)cs2)c2cccnc21 | 983 s |
| O=C(c1cncc(Br)c1)N1CCN(C(=O)c2cc(-c3ccncc3)n[nH]2)CC1 | 578 s |
| CN1CCN(CCNC(=O)C2CN(S(=O)(=O)c3ccccc3)CC23CCCCC3)CC1 (stereo not given) | 573 s |

| SMILES | RP-LC retention time |
| --- | --- |
| CCn1nccc1-c1cccc(-c2noc(-c3cc(Cl)ccc3F)n2)c1 | 1300 s |
| c1ccc(-c2nc(CC3CCCNC3)no2)cc1 (stereo not given) | 609 s |
| CC(=O)Nc1ccc2c(c1)CN(C(=O)c1ccc(F)cc1F)C(C(=O)N(C)C)C2 (stereo not given) | 661 s |
| O=C(NCc1cccnc1)C1c2ccccc2C(=O)N(Cc2ccccc2)C12CCCC2 (stereo not given) | 649 s |
| Cc1ccc(CNC(=O)C2(C)Cn3nc(C(=O)NCCCN4CCCCC4)cc3C(=O)N2C)cc1 (stereo not given) | 598 s |
| CNC(=O)[C@@H]1CN(C(=O)c2cscn2)C[C@H]1c1nc(C)no1 | 585 s |
| CCOc1ccc(-n2c(=O)c3sccc3n(Cc3nc(-c4ccc(Cl)c(F)c4)no3)c2=O)cc1 | 1140 s |
| Fc1cccc(CNc2cc(-n3cccn3)ncn2)c1 | 854 s |
| Cc1nc(OCC(=O)Nc2ccc(Cl)cc2Cl)c2ccccc2n1 | 831 s |
| CC(C)c1noc(C2(NC(=O)c3cnccn3)CCCCC2)n1 | 894 s |
| COc1ccc(-c2noc(CC(=O)NCc3ccccc3)c2-c2ccc(OC)cc2)cc1 | 924 s |
| COc1cccc(CN2CCC3(CC2)CC(O)CCO3)c1OC (stereo not given) | 582 s |
| CCc1nc2c(sc3nc(-c4ccccc4)ccc32)c(=O)n1CC(=O)N1CCc2ccccc2C1 | 1170 s |
| CCOC(=O)CNC(=O)NCc1cccn1Cc1ccc(Cl)cc1 | 843 s |
| COc1ccccc1-c1nc(Cn2nnc(-c3nc(-c4ccc(C(F)(F)F)cc4)no3)c2C)c(C)o1 | 1240 s |
| Cc1cc2nn(CC(=O)NCc3ccccc3)c(=O)n2c(-c2ccccc2)n1 | 753 s |
| Cc1ccc(S(=O)(=O)N2CCCC2)cc1-c1nnc(-c2ccc(Cl)cc2)o1 | 1130 s |
| Cc1ccc(C)c(C(=O)N2CCC3(CC2)N=C(c2ccccc2)NO3)c1 | 855 s |
| CCc1nc(-c2csc(S(=O)(=O)N3CCC(C(=O)N4CCC5(CC4)OCCO5)CC3)c2)no1 | 816 s |
| Cc1ccccc1-c1nc(C2CCN(S(=O)(=O)c3ccc4c(c3)CCC4)CC2)no1 | 1130 s |
| CCCNc1cc(N2CCC(CCC(=O)N(C)Cc3ccccc3)CC2)ncn1 | 702 s |
| Cc1ccc(Cl)c(NS(=O)(=O)c2cc(-c3[nH]ncc3C(=O)N(C)C)oc2C)c1 | 717 s |
| COc1ccc(NC(=O)C2CCN(S(=O)(=O)c3cc4c(cc3C)NC(=O)CO4)CC2)cc1 | 754 s |

| SMILES | RP-LC retention time |
| --- | --- |
| Cc1cccc(CNS(=O)(=O)c2ccc3c(c2)CCCC(=O)N3)c1 | 754 s |
| Cc1cc2nn(CC(=O)NC(C)C)c(=O)n2c(-c2ccc(C(F)(F)F)cc2)n1 | 576 s |
| CC1CCCCN1c1cc(-n2cnc(C(=O)N3CCCCC3)c2)ncn1 (stereo not given) | 880 s |
| O=C1COc2ccc(Cl)cc2N1Cc1nc(-c2cccc(-c3csc(C4CC4)n3)c2)no1 | 1300 s |
| COCCN1CCC(N2CCCN(C(=O)Cc3c[nH]c4ccccc34)CC2)C1=O (stereo not given) | 576 s |
| Cc1ccn2cc(-c3ccc(NC(=O)c4ccccc4I)cc3)nc2n1 | 656 s |
| O=C(C1CCN(c2nc3ccc(-c4ccc(F)cc4)nc3s2)CC1)N1CCOCC1 | 864 s |
| COc1cc(-c2noc(C3CC(=O)N(c4ccc(C)c(Cl)c4)C3)n2)cc(OC)c1OC (stereo not given) | 1050 s |
| Cc1cc(C)cc(NC(=O)Nc2nccn(-c3cccc(F)c3)c2=O)c1 | 1030 s |
| CCc1ccccc1NC(=O)N1CCC(n2cnnc2C2CC2)C1 (stereo not given) | 628 s |
| CC1CCN(c2ccc(-c3noc(CN4CCN(c5ccccc5)CC4)n3)cn2)CC1 | 787 s |
| CCN1CCN(C(=O)C2Cc3cc(S(=O)(=O)N4CCCCC4)ccc3N2C(C)=O)CC1 (stereo not given) | 601 s |
| CCOc1nc2ccccc2nc1N1CCCC(C(=O)Nc2ccccc2C(C)C)C1 (stereo not given) | 1230 s |
| Cc1nc([C@@H]2CN(C(=O)c3sc(C)nc3C)C[C@H]2C(N)=O)n[nH]1 | 550 s |
| O=C(Cn1c(-c2ccc(F)cc2)nc2ccccc21)N1CCCCC1 | 675 s |
| Cc1ccc(-c2nnc(C3CN(C(=O)C4(c5ccccc5)CC4)CC34CCOCC4)o2)cc1 (stereo not given) | 830 s |
| Cc1oc2ccn(Cc3cccc(F)c3)c(=O)c2c1C(=O)N(C)Cc1ccccc1 | 898 s |
| CC(=O)N1c2ccc(S(=O)(=O)N3CCCCC3)cc2CC1C(=O)NCCN(C)Cc1ccccc1 (stereo not given) | 676 s |
| COc1ccccc1-c1noc(C2CCCN2C(=O)Nc2ccc(F)cc2F)n1 (stereo not given) | 840 s |
| Cc1cccc(Nc2c(-c3ccc(N4CCOCC4)cc3)nc3ncccn23)c1 | 717 s |
| O=S(=O)(c1cc(-c2nnc(-c3ccc(F)cc3)o2)ccc1Cl)N1CCCCC1 | 1190 s |
| CC(C)NCc1ccc(-c2ccc(F)cc2)o1 | 647 s |
| CCCN(C)c1nccn2c(=O)n(CC(=O)Nc3ccc(C)cc3Cl)nc12 | 736 s |

| SMILES | RP-LC retention time |
| --- | --- |
| COc1ccc(C)cc1NC(=O)N(C)CCc1noc(COc2cccc(C)c2)n1 | 1020 s |
| CCCN(C)S(=O)(=O)c1cc(-c2nnc(C(C)C)o2)co1 | 872 s |
| Cc1nc(C)c(CCNS(=O)(=O)c2cc(C)c(C)cc2C)s1 | 695 s |
| Cc1ccccc1Cn1ccnc1C(N)=O | 695 s |
| O=C(CNC(=O)c1c[nH]c2ccccc12)NCCC1=CCCCC1 | 710 s |
| O=C(NC1CC1)c1ccc(OCC2CCCN2C(=O)c2ccccc2C(F)(F)F)cc1 (stereo not given) | 832 s |
| CC1CCN(CCCNC(=O)C2CCc3sc(C(=O)N4CCOCC4)cc3C2)CC1 (stereo not given) | 596 s |
| CC1(C(=O)NCc2ccccc2)CCCN(S(=O)(=O)c2ccccc2Cl)C1 (stereo not given) | 946 s |
| CCOc1ccc(Br)cc1CNc1ccc2[nH]c(=O)[nH]c2c1 | 668 s |
| Cn1cc(C2=CCN(S(=O)(=O)c3cccc(F)c3)CC2)c2cccnc21 | 969 s |
| c1ccc(-c2nc3ncc4c(n3n2)CCC4)cc1 | 756 s |
| O=S(=O)(Cc1ccccc1)N1CCC(n2c(-c3ccco3)nc3cccnc32)C1 (stereo not given) | 802 s |
| CC[C@@H](c1cccc(O)c1)[C@@H](C)CN(C)C | 633 s |
| CC(=O)NCCSc1c(-c2ccc(Cl)cc2)[nH]c2ccccc12 | 800 s |
| CCc1ccc(-c2noc(Cn3c(=O)n(-c4ccccc4C)c(=O)c4sccc43)n2)cc1 | 1140 s |
| O=C(C1CC1)N1CCC(Cc2noc(C3CC3)n2)C1 (stereo not given) | 686 s |
| CCOc1ccc(NC(=O)C2CCN(S(=O)(=O)c3cn(C(C)C)cn3)CC2)cc1 | 775 s |
| COc1ccc(Cl)cc1NC(=O)Cn1cccc1-c1nnc(C2CCC2)o1 | 1040 s |
| Cc1ccccc1-c1noc(Cn2nc(-c3ccc4c(c3)OCO4)ccc2=O)n1 | 943 s |
| CCCCNC(=O)C1CCCN(C(=O)Nc2ccc(NC(=O)NC3CCCC3)cc2)C1 (stereo not given) | 728 s |
| O=C(Cc1ccc(Cl)cc1)N1CCN(c2cc(-c3cccnc3)[nH]n2)CC1 | 636 s |
